Source: US20100041892A1, “Therapeutic agent for diabetes” (priority 2005, published 2010)

| SMILES | melting point [°C] |
| --- | --- |
| CC(C)CCS(=O)(=O)NC(=O)/C=C/c1cc(OC2CCOCC2)nn1Cc1ccc(Cl)cc1Cl [Example 117, (2E)-3-[1-(2,4-dichlorobenzyl)-3-(tetrahydro-2H-pyran-4-yloxy)-1H-pyrazol-5-yl]-N-[(3-methylbutyl)sulfonyl]acrylamide] | 143 to 144 |
| CC(C)CCS(=O)(=O)NC(=O)/C=C/c1cc(C2CC2)nn1Cc1ccc(C(F)(F)F)cc1Cl [Example 118, (2E)-3-{1-[2-chloro-4-(trifluoromethyl)benzyl]-3-cyclopropyl-1H-pyrazol-5-yl}-N-[(3-methylbutyl)sulfonyl]acrylamide] | 145 to 147 |
| COCCCS(=O)(=O)NC(=O)/C=C/c1cc(OCC2CC2)nn1Cc1ccc(C(F)(F)F)cc1Cl [Example 119, (2E)-3-[1-[2-chloro-4-(trifluoromethyl)benzyl]-3-(cyclopropylmethoxy)-1H-pyrazol-5-yl]-N-[(3-methoxypropyl)sulfonyl]acrylamide] | 137 to 138 |
| COCCCS(=O)(=O)NC(=O)CCc1cc(OCC2CC2)nn1Cc1ccc(C(F)(F)F)cc1Cl [Example 120, 3-[1-[2-chloro-4-(trifluoromethyl)benzyl]-3-(cyclopropylmethoxy)-1H-pyrazol-5-yl]-N-[(3-methoxypropyl)sulfonyl]propanamide] | 152 to 154 |
| CCCCCS(=O)(=O)NC(=O)CCc1cc(C(C)(C)C)nn1Cc1ccc(C(F)(F)F)cc1Cl [Example 122, 3-{3-tert-butyl-1-[2-chloro-4-(trifluoromethyl)benzyl]-1H-pyrazol-5-yl}-N-(pentylsulfonyl)propanamide] | 136 to 137 |
| COCCCS(=O)(=O)NC(=O)CCc1cc(C(C)(C)C)nn1Cc1ccc(C(F)(F)F)cc1Cl [Example 123, 3-{3-tert-butyl-1-[2-chloro-4-(trifluoromethyl)benzyl]-1H-pyrazol-5-yl}-N-[(3-methoxypropyl)sulfonyl]propanamide] | 149 to 150 |
| CC(C)Oc1cc(/C=C/S(=O)(=O)NC(=O)OC(C)(C)C)n(Cc2ccc(Cl)cc2Cl)n1 [Example 124, tert-butyl ({(E)-2-[1-(2,4-dichlorobenzyl)-3-isopropoxy-1H-pyrazol-5-yl]vinyl}sulfonyl)carbamate] | 152 to 153 |
| CCCCCC(=O)NS(=O)(=O)/C=C/c1cc(OC(C)C)nn1Cc1ccc(Cl)cc1Cl [Example 125, N-({(E)-2-[1-(2,4-dichlorobenzyl)-3-isopropoxy-1H-pyrazol-5-yl]vinyl}sulfonyl)hexanamide] | 73 to 75 |
| CCCCCC(=O)NS(=O)(=O)CCc1cc(OC(C)C)nn1Cc1ccc(Cl)cc1Cl [Example 126, N-({2-[1-(2,4-dichlorobenzyl)-3-isopropoxy-1H-pyrazol-5-yl]ethyl}sulfonyl)hexanamide] | 107 to 108 |
| CCCCOc1cc(/C=C/S(=O)(=O)NC(=O)OC(C)(C)C)n(Cc2ccc(Cl)cc2Cl)n1 [Example 127, tert-butyl ({(E)-2-[3-butoxy-1-(2,4-dichlorobenzyl)-1H-pyrazol-5-yl]vinyl}sulfonyl)carbamate] | 152 to 153 |
| CCCCCC(=O)NS(=O)(=O)CCc1cc(OCCCC)nn1Cc1ccc(Cl)cc1Cl [Example 128, N-({2-[3-butoxy-1-(2,4-dichlorobenzyl)-1H-pyrazol-5-yl]ethyl}sulfonyl)hexanamide] | 90 to 92 |
| CCCCOC(=O)NS(=O)(=O)/C=C/c1cc(OCCCC)nn1Cc1ccc(Cl)cc1Cl [Example 130, butyl ({(E)-2-[3-butoxy-1-(2,4-dichlorobenzyl)-1H-pyrazol-5-yl]vinyl}sulfonyl)carbamate] | 137 to 138 |
| CCCCCC(=O)NS(=O)(=O)/C=C/c1cc(OCCCC)nn1Cc1ccc(Cl)cc1Cl [Example 131, N-({(E)-2-[3-butoxy-1-(2,4-dichlorobenzyl)-1H-pyrazol-5-yl]vinyl}sulfonyl)hexanamide] | 117 to 119 |
| CCCCOc1cc(CCS(=O)(=O)NC(=O)OCCC)n(Cc2ccc(Cl)cc2Cl)n1 [Example 132, propyl ({2-[3-butoxy-1-(2,4-dichlorobenzyl)-1H-pyrazol-5-yl]ethyl}sulfonyl)c arbamate] | 92 to 94 |
| CCCCOc1cc(CCS(=O)(=O)NC(=O)OCC(C)C)n(Cc2ccc(Cl)cc2Cl)n1 [Example 133, isobutyl ({2-[3-butoxy-1-(2,4-dichlorobenzyl)-1H-pyrazol-5-yl]ethyl}sulfonyl)carbamate] | 114 to 116 |
| CCCCOc1cc(CCS(=O)(=O)NC(=O)OCCOC)n(Cc2ccc(Cl)cc2Cl)n1 [Example 134, 2-methoxyethyl ({2-[3-butoxy-1-(2,4-dichlorobenzyl)-1H-pyrazol-5-yl]ethyl}sulfonyl)carbamate] | 82 to 86 |
| CCCCCOC(=O)NS(=O)(=O)CCc1cc(OCCCC)nn1Cc1ccc(Cl)cc1Cl [Example 135, pentyl ({2-[3-butoxy-1-(2,4-dichlorobenzyl)-1H-pyrazol-5-yl]ethyl}sulfonyl)carbamate] | 91 to 93 |
| CCCCOc1cc(CCS(=O)(=O)NC(=O)OCc2ccccc2)n(Cc2ccc(Cl)cc2Cl)n1 [Example 136, benzyl ({2-[3-butoxy-1-(2,4-dichlorobenzyl)-1H-pyrazol-5-yl]ethyl}sulfonyl)carbamate] | 99 to 101 |
| C=CCOC(=O)NS(=O)(=O)CCc1cc(OCCCC)nn1Cc1ccc(Cl)cc1Cl [Example 137, allyl ({2-[3-butoxy-1-(2,4-dichlorobenzyl)-1H-pyrazol-5-yl]ethyl}sulfonyl)carbamate] | 94 to 95 |
| CCCCOc1cc(CCS(=O)(=O)NC(=O)OCc2ccccc2)n(Cc2ccc(Cl)cc2Cl)n1 [Example 138, benzyl ({2-[3-butoxy-1-(2,4-dichlorobenzyl)-1H-pyrazol-5-yl]ethyl}sulfonyl)carbamate] | 92 to 95 |
| CCCCOc1cc(CCS(=O)(=O)NC(=O)OC(C)C)n(Cc2ccc(Cl)cc2Cl)n1 [Example 139, isopropyl ({2-[3-butoxy-1-(2,4-dichlorobenzyl)-1H-pyrazol-5-yl]ethyl}sulfonyl)carbamate] | 120 to 121 |
| CCCCOc1cc(CCS(=O)(=O)NC(=O)OCC(C)(C)C)n(Cc2ccc(Cl)cc2Cl)n1 [Example 140, 2,2-dimethylpropyl ({2-[3-butoxy-1-(2,4-dichlorobenzyl)-1H-pyrazol-5-yl]ethyl}sulfonyl)carbamate] | 116 to 118 |
| CC(C)CCS(=O)(=O)NC(=O)OCc1cc(OC(C)C)nn1Cc1ccc(Cl)cc1Cl [Example 141, [1-(2,4-dichlorobenzyl)-3-isopropoxy-1H-pyrazol-5-yl]methyl [(3-methylbutyl)sulfonyl]carbamate] | 104 to 107 |
| CCCCCS(=O)(=O)NC(=O)OCc1cc(OC(C)C)nn1Cc1ccc(Cl)cc1Cl [Example 142, [1-(2,4-dichlorobenzyl)-3-isopropoxy-1H-pyrazol-5-yl]methyl (pentylsulfonyl)carbamate] | 126 to 128 |
| CCCCCS(=O)(=O)NC(=O)CCCc1cc(OCCCC)nn1Cc1ccc(Cl)cc1Cl [Example 146, 4-[3-butoxy-1-(2,4-dichlorobenzyl)-1H-pyrazol-5-yl]-N-(pentylsulfonyl)butanamide] | 121 to 122 |
